Consider two compounds from ChEMBL document CHEMBL3880386, “Combination comprising the MEK inhibitor N-{3-[3-cyclopropyl-5-(2-fluoro-4-iodo- phenylamino)-6,8-dimethyl-2,4,7-trioxo-3,4,6,7-tetrahydro-2H-pyrido[4,3-d]pyrimidin-1-yl]phenyl}acetamide and the Akt inhibitor N-{(1S)-2-amino-1-[(3-fluorophenyl)methyl]ethyl}-5-chloro-4-(4-chloro-1- …” (2014).

Holding throughout (assay type): functional
The nature of experiment [1]: Growth inhibition of human EFM19 cells at 1:10 molar ratio of compound in presence of N-{3-[3-cyclopropyl-5-(2-fluoro-4-iodo-phenylamino)-6,8-dimethyl- 2,4,7-trioxo-3,4,6,7-tetrahydro-2H-pyrido[4,3-d]pyrimidin-1-yl]phenyl}acetamide incubated for 72 hrs by Cell-titer-Glo reagent based assay. Particulars: EFM-19, 72 h.
Experiment [2] is described as follows: Growth inhibition of human NCI-H1355 cells at 1:10 molar ratio of compound in presence of N-{3-[3-cyclopropyl-5-(2-fluoro-4-iodo-phenylamino)-6,8-dimethyl- 2,4,7-trioxo-3,4,6,7-tetrahydro-2H-pyrido[4,3-d]pyrimidin-1-yl]phenyl}acetamide incubated for 72 hrs by Cell-titer-Glo reagent based assay. Particulars: NCI-H1355, 72 h.
The nature of experiment [3]: Growth inhibition of human NCI-H1155 cells at 1:10 molar ratio of compound in presence of N-{3-[3-cyclopropyl-5-(2-fluoro-4-iodo-phenylamino)-6,8-dimethyl- 2,4,7-trioxo-3,4,6,7-tetrahydro-2H-pyrido[4,3-d]pyrimidin-1-yl]phenyl}acetamide incubated for 72 hrs by Cell-titer-Glo reagent based assay. Conditions: NCI-H1155, 72 h.
A short description of experiment [4]: Growth inhibition of human A427 cells at 1:10 molar ratio of compound in presence of N-{3-[3-cyclopropyl-5-(2-fluoro-4-iodo-phenylamino)-6,8-dimethyl- 2,4,7-trioxo-3,4,6,7-tetrahydro-2H-pyrido[4,3-d]pyrimidin-1-yl]phenyl}acetamide incubated for 72 hrs by Cell-titer-Glo reagent based assay. Particulars: A-427, 72 h.
A short description of experiment [5]: Growth inhibition of human Calu3 cells at 1:10 molar ratio of compound in presence of N-{3-[3-cyclopropyl-5-(2-fluoro-4-iodo-phenylamino)-6,8-dimethyl- 2,4,7-trioxo-3,4,6,7-tetrahydro-2H-pyrido[4,3-d]pyrimidin-1-yl]phenyl}acetamide incubated for 72 hrs by Cell-titer-Glo reagent based assay. Conditions: Calu-3, 72 h.
The nature of experiment [6]: Growth inhibition of human COLO205 cells at 1:10 molar ratio of compound in presence of N-{3-[3-cyclopropyl-5-(2-fluoro-4-iodo-phenylamino)-6,8-dimethyl- 2,4,7-trioxo-3,4,6,7-tetrahydro-2H-pyrido[4,3-d]pyrimidin-1-yl]phenyl}acetamide incubated for 72 hrs by Cell-titer-Glo reagent based assay. Particulars: COLO 205, 72 h.
Experiment [7] is described as follows: Growth inhibition of human KM12 cells at 1:10 molar ratio of compound in presence of N-{3-[3-cyclopropyl-5-(2-fluoro-4-iodo-phenylamino)-6,8-dimethyl- 2,4,7-trioxo-3,4,6,7-tetrahydro-2H-pyrido[4,3-d]pyrimidin-1-yl]phenyl}acetamide incubated for 72 hrs by Cell-titer-Glo reagent based assay. Particulars: KM12, 72 h.
A short description of experiment [8]: Growth inhibition of human SW1463 cells assessed combination index at 1:10 molar ratio of compound in presence of N-{3-[3-cyclopropyl-5-(2-fluoro-4-iodo-phenylamino)-6,8-dimethyl- 2,4,7-trioxo-3,4,6,7-tetrahydro-2H-pyrido[4,3-d]pyrimidin-1-yl]phenyl}acetamide incubated for 72 hrs by Cell-titer-Glo reagent based assay.
Experiment [9] can be described thus: Growth inhibition of human NCI-H1792 cells assessed combination index at 1:10 molar ratio of compound in presence of N-{(1S)-2-amino-1-[(3-fluorophenyl)methyl]ethyl}-5-chloro-4-(4-chloro-1-methyl-1H-pyrazol-5-yl)-2-thiophenecar- boxamide incubated for 72 hrs by Cell-titer-Glo reagent based assay.
A short description of experiment [10]: Growth inhibition of human COR-L23 cells assessed combination index at 1:10 molar ratio of compound in presence of N-{(1S)-2-amino-1-[(3-fluorophenyl)methyl]ethyl}-5-chloro-4-(4-chloro-1-methyl-1H-pyrazol-5-yl)-2-thiophenecar- boxamide incubated for 72 hrs by Cell-titer-Glo reagent based assay.
Experiment [11] is described as follows: Growth inhibition of human COLO205 cells at 1:10 molar ratio of compound in presence of N-{(1S)-2-amino-1-[(3-fluorophenyl)methyl]ethyl}-5-chloro-4-(4-chloro-1-methyl-1H-pyrazol-5-yl)-2-thiophenecar- boxamide incubated for 72 hrs by Cell-titer-Glo reagent based assay. Conditions: COLO 205, 72 h.
Experiment [12] in a line: Growth inhibition of human DLD1 cells at 1:10 molar ratio of compound in presence of N-{(1S)-2-amino-1-[(3-fluorophenyl)methyl]ethyl}-5-chloro-4-(4-chloro-1-methyl-1H-pyrazol-5-yl)-2-thiophenecar- boxamide incubated for 72 hrs by Cell-titer-Glo reagent based assay. Particulars: DLD-1, 72 h.
The nature of experiment [13]: Growth inhibition of human HOP62 cells at 1:10 molar ratio of compound in presence of N-{(1S)-2-amino-1-[(3-fluorophenyl)methyl]ethyl}-5-chloro-4-(4-chloro-1-methyl-1H-pyrazol-5-yl)-2-thiophenecar- boxamide incubated for 72 hrs by Cell-titer-Glo reagent based assay. Particulars: HOP-62, 72 h.
Experiment [14] in a line: Growth inhibition of human SW1463 cells at 1:10 molar ratio of compound in presence of N-{(1S)-2-amino-1-[(3-fluorophenyl)methyl]ethyl}-5-chloro-4-(4-chloro-1-methyl-1H-pyrazol-5-yl)-2-thiophenecar- boxamide incubated for 72 hrs by Cell-titer-Glo reagent based assay. Particulars: SW1463, 72 h.

One may read the IC50 as the concentration that inhibits the measured activity by half. Regarding `Cn1ncc(Cl)c1-c1cc(C(=O)N[C@H](CN)Cc2cccc(F)c2)sc1Cl` [AFURESERTIB], the IC50 in experiment [1] is 300 nM; in experiment [2], 268 nM; in experiment [3] it was 101 nM; in experiment [4], 103 nM; in experiment [5], 392 nM; in [6], 9 nM. In experiment [7], the 50% inhibitory concentration (IC50) turned out to be 104 nM. In addition, the CI in experiment [8] is 0.94.
Regarding `CC(=O)Nc1cccc(-n2c(=O)n(C3CC3)c(=O)c3c(Nc4ccc(I)cc4F)n(C)c(=O)c(C)c32)c1` [TRAMETINIB], the CI in experiment [9] is given as 0.73; in experiment [10], 0.17. For the same compound, the IC50 in experiment [11] came out at 1 nM; in [12], 93 nM; in [13], 50 nM; in experiment [14], 4 nM.
